Test results as given in doi:10.1101/2023.08.31.555680v1 (biorxiv, 2023).

Tests used:
TsiA-FAST = conditions: PBS pH […] presumably; details in supplement
RspA-FAST = conditions: PBS pH […] presumably; details in supplement
[1] = target: RspA-splitFAST (assembled NC complex; FRB-RspA(N) + FKBP-RspA(C)); conditions: read-out: Kd,F/C; […] each FRB-N and FKBP-C preassembled with […] rapamycin

Row | Compound | Kd (TsiA-FAST) [nM] | Kd (RspA-FAST) [nM] | Kd [1] [nM]
1 | COc1cc(/C=C2\SC(=S)NC2=O)cc(OC)c1O [HBR-3,5DOM] | 60 | 74 | 
2 | Cc1cc(/C=C2\SC(=S)NC2=O)ccc1O [HMBR] |  |  | 150 ± 10
